Reference: US20130216579A1, “METHODS AND COMPOSTITIONS FOR GENE EDITING OF A PATHOGEN” (priority 2012, published 2013)

Key:
[1] = test system: ZFN 30414 (synthetic construct); experiment: cell_activity; details: pair with 30415; K76I conversion 38/38, 28/28 and 31/31 in 106/1 with CQ selection; 10/40 clones in Dd2 without selection
[2] = test system: GC03^crt-Dd2 G9 and GC03^crt-Dd2 H6 parasite clones; experiment: In vitro CQ IC50 of pfcrt allelic replacement clones vs GC03 parent; format: cell-based, P. falciparum
Experimental: To quantify the efficiency of pfcrt allelic replacement, clones were generated by limiting dilution and analyzed by PCR. We observed replacement events in 13/82 (15.9%) 106/1 clones and 4/83 (4.8%) GC03 clones (FIG. 3B).
(§1) We also confirmed the CQ resistance phenotype of two gene-edited lines, 106/1^13/15mut2 and 106/1^14/15mut1 (FIG. 4A). […] Parasitemia was determined by flow cytometry after a 72 h incubation with drug. Parasites were stained with 1.6 μM Mito Tracker® (Molecular probes, Invitrogen) and 2×Sybr® Green (Molecular probes, Invitrogen) in 1×PBS supplemented with 5% FBS as described. In vitro IC50 values were calculated by non-linear regression analysis and Mann-Whitney U tests were employed for statistical analysis.

CQS strain 106/1 = experiment: CQ exposure of non-transfected 106/1 cultures; format: cell-based, P. falciparum; details: 33 nM CQ, six independent non-transfected 106/1 cultures
[3] = test system: 106/1^13/15mut2 and 106/1^14/15mut1 parasite lines; experiment: In vitro CQ IC50 of gene-edited 106/1 lines, parasitemia by flow cytometry after 72 h; format: cell-based, P. falciparum; details: lines 106/1^13/15mut2 and 106/1^14/15mut1, 72 h
Experimental: as §1

[4] = test system: ZFN 30413 (synthetic construct); experiment: cell_activity; details: pair with 30415; K76I conversion 29/29 and 25/25 in 106/1 with CQ selection; 2/36 clones in Dd2 without selection

Molecule: CTGTTAAGGTCGACAAGGGAAAAAAAAA (double strand) [pfcrt 30414 target site]
- activity [1]: 100%

Molecule: CCN(CC)CCCC(C)Nc1ccnc2cc(Cl)ccc12 (centres unmarked) [CQ, chloroquine]
- shift in CQ IC50 values compared to the GC03 parent [2]: 4- to 5 fold
- parasite outcome under CQ exposure (CQS strain 106/1): yielded no parasites after 90 days
- shift in CQ IC50 values relative to the unmodified 106/1 parent line [3]: 5-6 fold

Molecule: CTGTTAAGGTCGACAAGGGAAAAAAAAA (double strand) [pfcrt 30413 target site]
- activity [4]: 100%
